Assay results published in ChEMBL document CHEMBL3612029, “Design, synthesis and anticancer activity of Michael-type thiol adducts of α-santonin analogue with exocyclic methylene” (Eur J Med Chem, 2015).

Experiments:
A549 = experiment: Cytotoxicity against human A549 cells assessed as growth inhibition after 48 hrs by sulphorhodamine B assay; assay type: functional, cell-based; conditions: A549, 48 h
PC-3 = experiment: Cytotoxicity against human PC3 cells assessed as growth inhibition after 48 hrs by sulphorhodamine B assay; assay type: functional, cell-based; conditions: PC-3, 48 h
MCF7 [1] = experiment: Cytotoxicity against human MCF7 cells assessed as growth inhibition after 48 hrs by sulphorhodamine B assay; assay type: functional, cell-based; conditions: MCF7, 48 h
HCT-116 = experiment: Cytotoxicity against human HCT116 cells assessed as growth inhibition after 48 hrs by sulphorhodamine B assay; assay type: functional, cell-based; conditions: HCT-116, 48 h
MCF7 [2] = experiment: Cell cycle arrest in human MCF7 cells assessed as accumulation at subG1 phase at 5 uM after 24 hrs by propidium iodide staining-based flow cytometric analysis (reference value: 4.8%); assay type: functional
[3] = biological target: Transcription factor p65 (Homo sapiens) (UniProt Q04206); experiment: Inhibition of NF-kappa-B p65 subunit binding to DNA response element in human MCF7 cell nuclear lysates at 2 uM after 24 hrs relative to control
Chain of Transcription factor p65 (Homo sapiens) (Q04206 whole entry): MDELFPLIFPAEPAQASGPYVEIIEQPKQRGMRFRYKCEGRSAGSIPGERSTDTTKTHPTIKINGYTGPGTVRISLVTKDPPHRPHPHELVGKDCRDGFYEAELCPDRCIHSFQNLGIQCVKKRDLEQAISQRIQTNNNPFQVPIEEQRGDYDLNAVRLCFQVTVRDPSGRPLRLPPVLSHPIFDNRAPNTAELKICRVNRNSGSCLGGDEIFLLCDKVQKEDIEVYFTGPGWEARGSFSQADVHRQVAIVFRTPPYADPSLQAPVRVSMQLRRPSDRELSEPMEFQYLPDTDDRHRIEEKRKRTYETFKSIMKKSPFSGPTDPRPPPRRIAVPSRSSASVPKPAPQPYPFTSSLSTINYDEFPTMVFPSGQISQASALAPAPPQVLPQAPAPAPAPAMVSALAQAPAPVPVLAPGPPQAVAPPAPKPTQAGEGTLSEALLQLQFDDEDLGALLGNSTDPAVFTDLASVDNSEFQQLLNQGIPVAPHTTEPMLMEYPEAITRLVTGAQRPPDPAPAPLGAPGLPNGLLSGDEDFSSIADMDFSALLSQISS

MCF7 [4] = experiment: Cell cycle arrest in human MCF7 cells assessed as accumulation at subG1 phase after 24 hrs by propidium iodide staining-based flow cytometric analysis; assay type: functional
[5] = biological target: Transcription factor p65 (Homo sapiens) (UniProt Q04206); experiment: Inhibition of NF-kappa-B p65 subunit binding to DNA response element in human MCF7 cell nuclear lysates at 1.5 uM after 24 hrs relative to control
MCF7 [6] = experiment: Cell cycle arrest in human MCF7 cells assessed as accumulation at subG1 phase at 1.5 uM after 24 hrs by propidium iodide staining-based flow cytometric analysis (reference value: 4.8%); assay type: functional
[7] = biological target: Transcription factor p65 (Homo sapiens) (UniProt Q04206); experiment: Inhibition of NF-kappa-B p65 subunit binding to DNA response element in human MCF7 cell nuclear lysates after 24 hrs
MCF7 [8] = experiment: Cell cycle arrest in human MCF7 cells assessed as accumulation at subG1 phase at 1 uM after 24 hrs by propidium iodide staining-based flow cytometric analysis (reference value: 4.8%); assay type: functional
[9] = biological target: Transcription factor p65 (Homo sapiens) (UniProt Q04206); experiment: Inhibition of NF-kappa-B p65 subunit binding to DNA response element in human MCF7 cell nuclear lysates at 1 uM after 24 hrs relative to control
MCF7 [10] = experiment: Cell cycle arrest in human MCF7 cells assessed as accumulation at subG1 phase at 2 uM after 24 hrs by propidium iodide staining-based flow cytometric analysis (reference value: 4.8%); assay type: functional
[11] = biological target: Transcription factor p65 (Homo sapiens) (UniProt Q04206); experiment: Inhibition of NF-kappa-B p65 subunit binding to DNA response element in human MCF7 cell nuclear lysates at 3 uM after 24 hrs relative to control

SMILES	IC50 (A549)	IC50 (PC-3)	IC50 (MCF7 [1])	IC50 (HCT-116)	other results
CCSC[C@@H]1C(=O)O[C@@H]2C3=C(C)C(=O)C=C[C@]3(C)CC[C@@H]12	12.2 µM	9.9 µM	23.5 µM	16.5 µM	
O=c1[nH]cc(F)c(=O)[nH]1 [FLUOROURACIL]				4.5 µM	
CC1=C2[C@H]3OC(=O)[C@@H](CSc4ccccc4)[C@@H]3CC[C@@]2(C)C=CC1=O	19.8 µM	25.9 µM	25.2 µM	19.1 µM	
C=C1C(=O)O[C@@H]2C3=C(C)C(=O)C=C[C@]3(C)CC[C@@H]12	> 50 µM	32.7 µM	25.2 µM	31.5 µM	
CC1=C2[C@H]3OC(=O)[C@@H](CSC4CCCCC4)[C@@H]3CC[C@@]2(C)C=CC1=O	45.2 µM	> 50 µM	> 50 µM	> 50 µM	
CC1=C2[C@H]3OC(=O)[C@@H](CSc4ccc(F)c(F)c4)[C@@H]3CC[C@@]2(C)C=CC1=O	5.9 µM	2.9 µM	1 µM	0.7 µM	
COc1ccccc1SC[C@@H]1C(=O)O[C@@H]2C3=C(C)C(=O)C=C[C@]3(C)CC[C@@H]12	> 50 µM	40.7 µM	36.1 µM	45.9 µM	
CC1=C2[C@H]3OC(=O)[C@@H](C)[C@@H]3CC[C@@]2(C)C=CC1=O [SANTONIN]	> 50 µM	> 50 µM	> 50 µM	> 50 µM	
CC1=C2[C@H]3OC(=O)[C@@H](CSc4nc5ccccc5n4C)[C@@H]3CC[C@@]2(C)C=CC1=O	42 µM	34.9 µM	39.2 µM	20.7 µM	
CC[C@@]1(O)C(=O)OCc2c1cc1n(c2=O)Cc2cc3ccccc3nc2-1 [CAMPTOTHECIN]					Activity (MCF7 [2]): 52.4%
CC1=C2[C@H]3OC(=O)[C@@H](CSc4ccc(Br)cc4C)[C@@H]3CC[C@@]2(C)C=CC1=O	10 µM	8.5 µM	8.5 µM	1.4 µM	
CC1=C2[C@H]3OC(=O)[C@@H](CSc4ccccc4Cl)[C@@H]3CC[C@@]2(C)C=CC1=O	6.6 µM	9.1 µM	23.2 µM	16.6 µM	
CC1=C2[C@H]3OC(=O)[C@@H](CSc4ccc(F)cc4)[C@@H]3CC[C@@]2(C)C=CC1=O	1.1 µM	4.5 µM	7.3 µM	0.8 µM	
CC1=C2[C@H]3OC(=O)[C@@H](CSc4ccc(Br)cc4)[C@@H]3CC[C@@]2(C)C=CC1=O	2.4 µM	1.5 µM	0.6 µM	1.2 µM	inhibition [3]: 57%; Activity (MCF7 [4]): Dose-dependent effect; inhibition [5]: 45%; Activity (MCF7 [6]): 44.5%; inhibition [7]: Dose-dependent effect; Activity (MCF7 [8]): 36.8%
CC1=C2[C@H]3OC(=O)[C@@H](CSc4ccccn4)[C@@H]3CC[C@@]2(C)C=CC1=O	4.1 µM	1.9 µM	0.4 µM	0.5 µM	inhibition [5]: 43%; Activity (MCF7 [6]): 44.6%; inhibition [7]: Dose-dependent effect; inhibition [9]: 27%; Activity (MCF7 [8]): 38%
CC1=C2[C@H]3OC(=O)[C@@H](CSc4nc5ccccc5c(=O)[nH]4)[C@@H]3CC[C@@]2(C)C=CC1=O	18.3 µM	31.1 µM	17.2 µM	20.3 µM	
CC1=C2[C@H]3OC(=O)[C@@H](CSc4ccccc4Br)[C@@H]3CC[C@@]2(C)C=CC1=O	2.8 µM	2.6 µM	2.3 µM	1.1 µM	
CC1=C2[C@H]3OC(=O)[C@@H](CSc4ccc(Cl)cc4)[C@@H]3CC[C@@]2(C)C=CC1=O	2.7 µM	2.1 µM	1 µM	0.8 µM	Activity (MCF7 [10]): 46.6%; inhibition [3]: 49%; Activity (MCF7 [4]): Dose-dependent effect; inhibition [5]: 36%; Activity (MCF7 [6]): 45.1%; inhibition [11]: 62%; inhibition [7]: Dose-dependent effect
CC1=C2[C@H]3OC(=O)[C@@H](CSc4ccccc4F)[C@@H]3CC[C@@]2(C)C=CC1=O	1.8 µM	2 µM	1.2 µM	0.9 µM	
CC1=C2[C@H]3OC(=O)[C@@H](CSc4ccc(C)cc4)[C@@H]3CC[C@@]2(C)C=CC1=O	7.4 µM	5.7 µM	6 µM	12.1 µM	
COc1ccc(SC[C@@H]2C(=O)O[C@@H]3C4=C(C)C(=O)C=C[C@]4(C)CC[C@@H]23)cc1	8.9 µM	13.1 µM	21.4 µM	24.9 µM	
CC1=C2[C@H]3OC(=O)[C@@H](CSc4ccccc4C)[C@@H]3CC[C@@]2(C)C=CC1=O	0.9 µM	20.7 µM	20.9 µM	21.5 µM	
CC1=C2[C@H]3OC(=O)[C@@H](CSc4ncc[nH]4)[C@@H]3CC[C@@]2(C)C=CC1=O	8.8 µM	4.7 µM	2.4 µM	0.8 µM	
CC1=C2[C@H]3OC(=O)[C@@H](CSc4ccccc4N)[C@@H]3CC[C@@]2(C)C=CC1=O	30.7 µM	10.8 µM	7.8 µM	13 µM	
CC1=C2[C@H]3OC(=O)[C@@H](CSc4ccc(C)c(Br)c4)[C@@H]3CC[C@@]2(C)C=CC1=O	4.1 µM	31 µM	20.2 µM	0.8 µM	
